By IC50 is commonly meant the concentration needed to halve the response being measured.

Here are results for three molecules from ChEMBL document CHEMBL4411322 (J Med Chem, 2019).

SMILES strings stand for the structures. Active and inactive are the calls of the source. No cut-off for these calls is given here. Non-standard residues stand in square brackets, D forms with d. Residues, ends and D or L forms follow the SMILES beside them. Groups on a side chain read outwards from the residue. *: point of attachment. BODIPY(FL) = CC1=CC(C)=[N+]2C1=Cc1ccc(CCC(=O)*)n1[B-]2(F)F; NMeK = CN[C@@H](CCCCN)C(=O)O; Ahx = NCCCCCC(=O)O

The target of data set [1] is T1, Integrin alpha-V/beta-8 (Homo sapiens, UniProt P06756+P26012). Kind of data set: Binding affinity to alphavbeta8 in human BHY cells assessed as fluorescence intensity at 10 uM after 1 hr using BDP FL-labeled compound by immunocytochemical analysis. It is filed as cell-based.
Another data set concerns the target Integrin alpha-V/beta-6 (Homo sapiens, UniProt P06756+P18564). Kind of data set: Inhibition of LAP binding to human integrin alphavbeta6 receptor after 1 hr by solid-phase binding assay. The following applies: read-out: IC50. In kind it is protein-complex assay.
Data set [2] has as its target T1, Integrin alpha-V/beta-8. Kind of data set: Binding affinity to alphavbeta8 in human REC cells assessed as fluorescence intensity at 10 uM after 1 hr using BDP FL-labeled compound by immunocytochemical analysis. It is filed as cell-based.
Data set [3] concerns the target T1, Integrin alpha-V/beta-8. Nature of the data set: Inhibition of LAP binding to human integrin alphavbeta8 receptor after 1 hr by solid-phase binding assay. In kind it is protein-complex assay. The settings on record: read-out: IC50.
Data set [4] concerns the target T1, Integrin alpha-V/beta-8. Nature of the data set: Binding affinity to alphavbeta8 in TGF-beta1 stimulated human HN cells assessed as fluorescence intensity at 10 uM after 1 hr using in presence of 10 to 20 molar excess peptide 2 by immunocytochemical analysis relative to control.
Data set [5] concerns the target T1, Integrin alpha-V/beta-8. Nature of the data set: Binding affinity to alphavbeta8 in TGF-beta1 stimulated human BHY cells assessed as fluorescence intensity at 10 uM after 1 hr using fluorescence-labeled compound in presence of 10 molar excess peptide 1a by immunocytochemical analysis. It is filed as cell-based.
A further data set concerns the target Integrin alpha-5/beta-1 (Homo sapiens, UniProt P05556+P08648). Kind of data set: Inhibition of human fibronectin binding to human integrin alpha5beta1 receptor after 1 hr by solid-phase binding assay. In kind it is protein-complex assay.
Data set [6] concerns the target Integrin alpha-IIb/beta-3 (Homo sapiens, UniProt P05106+P08514). Nature of the data set: Inhibition of human fibrinogen binding to human platelet integrin alpha2b-beta3 receptor after 1 hr by solid-phase binding assay.
In data set [7] the target is T1, Integrin alpha-V/beta-8. Kind of data set: Binding affinity to alphavbeta8 in TGF-beta1 stimulated human REC cells assessed as fluorescence intensity at 10 uM after 1 hr using fluorescence-labeled compound by immunocytochemical analysis.
In data set [8] the target is T1, Integrin alpha-V/beta-8. Kind of data set: Binding affinity to alphavbeta8 in human HN cells assessed as fluorescence intensity at 10 uM after 1 hr using BDP FL-labeled compound by immunocytochemical analysis. In kind it is cell-based.
In data set [9] the target is T1, Integrin alpha-V/beta-8. Nature of the data set: Binding affinity to alphavbeta8 in TGF-beta1 stimulated human BHY cells assessed as fluorescence intensity at 10 uM after 1 hr using fluorescence-labeled compound in presence of 10 molar excess peptide 2 by immunocytochemical analysis. It is filed as cell-based.
Data set [10] has as its target T1, Integrin alpha-V/beta-8. Kind of data set: Binding affinity to alphavbeta8 in TGF-beta1 stimulated human BHY cells assessed as fluorescence intensity at 10 uM after 1 hr using in presence of 5 to 100 molar excess peptide 1a by immunocytochemical analysis relative to control. In kind it is cell-based.
For the next data set, the target named is Integrin alpha-V/beta-5 (Homo sapiens, UniProt P06756+P18084). Nature of the data set: Inhibition of human vitronectin binding to human integrin alphavbeta5 receptor after 1 hr by solid-phase binding assay. In kind it is protein-complex assay.
The target in the next data set is Integrin alpha-V/beta-3 (Homo sapiens, UniProt P05106+P06756). Kind of data set: Inhibition of human vitronectin binding to human integrin alphavbeta3 receptor after 1 hr by solid-phase binding assay. In kind it is protein-complex assay.
Chain of Integrin alpha-V/beta-3 (P05106 27-788 limits assumed): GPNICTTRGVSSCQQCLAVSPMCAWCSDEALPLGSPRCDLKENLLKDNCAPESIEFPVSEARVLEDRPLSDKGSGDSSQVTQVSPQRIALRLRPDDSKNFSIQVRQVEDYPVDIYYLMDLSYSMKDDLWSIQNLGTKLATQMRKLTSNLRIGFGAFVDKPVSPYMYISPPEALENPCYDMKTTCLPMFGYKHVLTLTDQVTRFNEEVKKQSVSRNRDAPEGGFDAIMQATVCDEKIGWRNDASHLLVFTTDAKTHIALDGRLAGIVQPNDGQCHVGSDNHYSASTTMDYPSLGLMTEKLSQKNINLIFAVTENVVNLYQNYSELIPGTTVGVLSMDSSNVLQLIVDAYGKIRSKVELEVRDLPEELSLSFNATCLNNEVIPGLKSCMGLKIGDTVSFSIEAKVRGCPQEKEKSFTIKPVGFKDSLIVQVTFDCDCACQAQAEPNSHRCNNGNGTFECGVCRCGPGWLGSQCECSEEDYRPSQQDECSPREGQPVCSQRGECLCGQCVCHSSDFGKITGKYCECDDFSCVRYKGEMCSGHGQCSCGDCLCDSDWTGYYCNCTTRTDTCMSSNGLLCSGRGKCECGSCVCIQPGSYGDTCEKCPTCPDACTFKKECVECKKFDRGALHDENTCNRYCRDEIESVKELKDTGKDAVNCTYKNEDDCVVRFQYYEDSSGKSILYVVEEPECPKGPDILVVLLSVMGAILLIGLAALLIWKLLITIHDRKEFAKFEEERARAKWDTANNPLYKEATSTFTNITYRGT
Chain of Integrin alpha-V/beta-3 (P06756 31-889 limits assumed): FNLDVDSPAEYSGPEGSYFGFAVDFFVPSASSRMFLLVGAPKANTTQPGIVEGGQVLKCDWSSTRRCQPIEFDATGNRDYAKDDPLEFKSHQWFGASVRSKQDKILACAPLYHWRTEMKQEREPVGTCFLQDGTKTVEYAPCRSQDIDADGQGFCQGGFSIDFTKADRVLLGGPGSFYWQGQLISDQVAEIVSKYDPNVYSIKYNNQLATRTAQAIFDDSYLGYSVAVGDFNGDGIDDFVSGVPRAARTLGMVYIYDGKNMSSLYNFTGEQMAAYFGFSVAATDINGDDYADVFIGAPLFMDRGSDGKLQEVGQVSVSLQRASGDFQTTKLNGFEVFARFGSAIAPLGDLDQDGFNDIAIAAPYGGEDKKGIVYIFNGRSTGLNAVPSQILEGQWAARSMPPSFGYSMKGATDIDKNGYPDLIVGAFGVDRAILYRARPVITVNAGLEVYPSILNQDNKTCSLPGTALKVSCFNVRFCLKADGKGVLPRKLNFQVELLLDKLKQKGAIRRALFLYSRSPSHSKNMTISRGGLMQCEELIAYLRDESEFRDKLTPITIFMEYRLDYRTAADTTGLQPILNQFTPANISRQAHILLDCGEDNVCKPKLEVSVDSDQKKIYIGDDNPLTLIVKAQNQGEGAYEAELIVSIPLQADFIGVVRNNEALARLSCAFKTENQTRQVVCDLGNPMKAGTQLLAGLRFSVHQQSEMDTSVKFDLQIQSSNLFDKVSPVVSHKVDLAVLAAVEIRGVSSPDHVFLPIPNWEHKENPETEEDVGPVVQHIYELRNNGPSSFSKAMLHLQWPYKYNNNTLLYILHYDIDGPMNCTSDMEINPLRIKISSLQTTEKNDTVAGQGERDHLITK
Chain of Integrin alpha-V/beta-3 (P06756 891-1048 limits assumed): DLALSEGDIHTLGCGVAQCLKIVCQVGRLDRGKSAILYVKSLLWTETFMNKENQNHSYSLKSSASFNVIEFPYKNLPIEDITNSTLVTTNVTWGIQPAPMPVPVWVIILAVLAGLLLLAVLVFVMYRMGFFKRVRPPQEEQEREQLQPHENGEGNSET
The nature of data set [11]: Stability in 90% human serum assessed as drug degradation at 1 mM after 180 mins by HPLC analysis. The following applies: 3 h, 1000 µM. It is filed as ADME, cell-free.
The next data set is filed under the species Homo sapiens. Kind of data set: Selectivity ratio of IC50 for human integrin alphavbeta6 receptor to IC50 for human integrin alphavbeta8 receptor.
The nature of data set [12]: Stability in 90% human serum assessed as drug degradation at 1 mM after 15 mins by HPLC analysis. In kind it is ADME, cell-free. The following applies: read-out: Drug degradation.
A short description of data set [13]: Stability in 90% human serum assessed as drug degradation at 1 mM after 60 mins by HPLC analysis. It is filed as ADME, cell-free. The settings on record: read-out: Drug degradation.

Chain of Integrin alpha-5/beta-1 (P05556 21-798 limits assumed): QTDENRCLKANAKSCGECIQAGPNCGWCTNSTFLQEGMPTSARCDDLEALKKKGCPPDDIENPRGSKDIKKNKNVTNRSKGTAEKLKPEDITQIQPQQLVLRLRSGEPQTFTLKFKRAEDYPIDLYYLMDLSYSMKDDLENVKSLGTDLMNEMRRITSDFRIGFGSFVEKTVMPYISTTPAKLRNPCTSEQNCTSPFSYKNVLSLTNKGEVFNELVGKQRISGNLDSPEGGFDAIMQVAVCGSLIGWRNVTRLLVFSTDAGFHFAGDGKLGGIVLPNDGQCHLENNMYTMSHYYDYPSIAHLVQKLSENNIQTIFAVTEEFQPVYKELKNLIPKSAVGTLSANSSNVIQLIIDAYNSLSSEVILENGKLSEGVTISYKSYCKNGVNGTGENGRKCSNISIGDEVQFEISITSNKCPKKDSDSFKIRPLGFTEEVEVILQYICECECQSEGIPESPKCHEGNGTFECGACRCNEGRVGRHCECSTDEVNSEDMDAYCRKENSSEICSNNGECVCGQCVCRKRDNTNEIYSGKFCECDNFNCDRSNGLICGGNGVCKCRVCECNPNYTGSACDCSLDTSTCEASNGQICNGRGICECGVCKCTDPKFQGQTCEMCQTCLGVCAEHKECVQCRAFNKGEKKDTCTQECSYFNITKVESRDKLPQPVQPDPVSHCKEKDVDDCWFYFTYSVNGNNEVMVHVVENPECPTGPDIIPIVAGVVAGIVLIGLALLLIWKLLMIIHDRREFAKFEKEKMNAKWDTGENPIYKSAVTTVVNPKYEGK
Chain of Integrin alpha-5/beta-1 (P08648 42-894 limits assumed): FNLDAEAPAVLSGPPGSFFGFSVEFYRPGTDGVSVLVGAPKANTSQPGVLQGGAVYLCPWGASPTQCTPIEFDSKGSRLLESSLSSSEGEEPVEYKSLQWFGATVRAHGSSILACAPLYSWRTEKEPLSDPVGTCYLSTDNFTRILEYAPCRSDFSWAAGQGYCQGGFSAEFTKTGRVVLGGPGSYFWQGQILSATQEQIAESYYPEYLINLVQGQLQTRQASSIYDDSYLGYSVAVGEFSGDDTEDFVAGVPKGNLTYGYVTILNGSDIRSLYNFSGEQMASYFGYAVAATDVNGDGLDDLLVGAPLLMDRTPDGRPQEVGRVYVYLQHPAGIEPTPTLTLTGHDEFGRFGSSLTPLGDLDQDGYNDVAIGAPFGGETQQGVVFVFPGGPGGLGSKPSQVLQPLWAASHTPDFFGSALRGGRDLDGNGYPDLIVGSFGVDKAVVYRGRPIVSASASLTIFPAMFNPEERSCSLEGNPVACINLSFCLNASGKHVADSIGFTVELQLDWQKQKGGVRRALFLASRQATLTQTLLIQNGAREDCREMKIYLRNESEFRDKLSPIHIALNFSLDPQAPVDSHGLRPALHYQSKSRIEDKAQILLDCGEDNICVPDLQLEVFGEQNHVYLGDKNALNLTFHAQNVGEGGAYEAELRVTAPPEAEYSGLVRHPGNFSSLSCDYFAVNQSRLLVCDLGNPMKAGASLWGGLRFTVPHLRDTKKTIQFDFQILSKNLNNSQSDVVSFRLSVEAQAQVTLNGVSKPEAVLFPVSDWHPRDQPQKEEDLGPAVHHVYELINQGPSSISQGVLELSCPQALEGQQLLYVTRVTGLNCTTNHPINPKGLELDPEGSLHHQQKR
Chain of Integrin alpha-5/beta-1 (P08648 895-1049 limits assumed): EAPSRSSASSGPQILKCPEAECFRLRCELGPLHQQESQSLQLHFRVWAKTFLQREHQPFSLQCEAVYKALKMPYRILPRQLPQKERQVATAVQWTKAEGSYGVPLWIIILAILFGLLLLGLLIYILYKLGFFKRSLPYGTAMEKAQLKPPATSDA
Chain of Integrin alpha-IIb/beta-3 (P05106 27-788 limits assumed): as the sequence (P05106 27-788 limits assumed) above
Chain of Integrin alpha-IIb/beta-3 (P08514 32-887 limits assumed): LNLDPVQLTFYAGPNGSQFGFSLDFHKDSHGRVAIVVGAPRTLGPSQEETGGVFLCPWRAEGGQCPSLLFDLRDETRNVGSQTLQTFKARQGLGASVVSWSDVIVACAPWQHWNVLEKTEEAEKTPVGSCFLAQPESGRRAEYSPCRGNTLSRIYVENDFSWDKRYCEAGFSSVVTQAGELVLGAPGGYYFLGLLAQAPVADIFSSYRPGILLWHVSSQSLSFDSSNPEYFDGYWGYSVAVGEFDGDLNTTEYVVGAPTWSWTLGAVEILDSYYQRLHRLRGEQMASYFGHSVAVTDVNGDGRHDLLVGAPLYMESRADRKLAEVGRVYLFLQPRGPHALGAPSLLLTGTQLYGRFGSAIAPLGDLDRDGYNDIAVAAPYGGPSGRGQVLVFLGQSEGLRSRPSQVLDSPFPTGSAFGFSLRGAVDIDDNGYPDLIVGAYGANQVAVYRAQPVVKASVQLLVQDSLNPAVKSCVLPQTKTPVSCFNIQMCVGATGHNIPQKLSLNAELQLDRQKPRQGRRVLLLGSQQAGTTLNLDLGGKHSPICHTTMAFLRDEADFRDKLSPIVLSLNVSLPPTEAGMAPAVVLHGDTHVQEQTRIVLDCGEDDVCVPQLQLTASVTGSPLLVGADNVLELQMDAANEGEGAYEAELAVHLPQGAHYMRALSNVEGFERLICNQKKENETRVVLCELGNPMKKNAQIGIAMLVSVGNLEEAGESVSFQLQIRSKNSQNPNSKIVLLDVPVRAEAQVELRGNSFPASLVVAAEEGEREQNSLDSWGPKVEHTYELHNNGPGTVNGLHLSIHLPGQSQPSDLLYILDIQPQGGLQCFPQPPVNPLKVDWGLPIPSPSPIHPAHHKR
Chain of Integrin alpha-IIb/beta-3 (P08514 891-1039 limits assumed): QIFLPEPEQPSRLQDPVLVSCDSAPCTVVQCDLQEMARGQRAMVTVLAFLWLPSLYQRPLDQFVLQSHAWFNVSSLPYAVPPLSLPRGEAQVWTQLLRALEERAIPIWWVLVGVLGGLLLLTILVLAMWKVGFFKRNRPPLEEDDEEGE

In the case of `CC1=CC(C)=[N+]2C1=Cc1ccc(CCC(=O)NCCCCCC(=O)NCCCC[C@H]3C(=O)NCC(=O)N[C@@H](CC(C)C)C(=O)N[C@@H](CCCNC(=N)N)C(=O)NCC(=O)N[C@@H](CC(=O)O)C(=O)N[C@@H](CC(C)C)C(=O)N4CCC[C@@H]4C(=O)N3C)n1[B-]2(F)F` (cyclo(RGDL[dP][NMeK]([Ahx-BODIPY(FL)])GL)), the result on Integrin alpha-V/beta-8 [1], at Integrin alpha-V/beta-8 [2], on Integrin alpha-V/beta-8 [7] and at Integrin alpha-V/beta-8 [8] was Active. In addition, the IC50 is 47 nM at Integrin alpha-V/beta-6; 0.06 nM on Integrin alpha-V/beta-8 [3]; 689 nM at Integrin alpha-5/beta-1; greater than 1000 nM in data set [6]; greater than 1000 nM on Integrin alpha-V/beta-5; 43 nM at Integrin alpha-V/beta-3. At Integrin alpha-V/beta-8 [4], the Activity was 50%. For the same molecule, the outcome on Integrin alpha-V/beta-8 [5], at Integrin alpha-V/beta-8 [9] and at Integrin alpha-V/beta-8 [10] was inactive.

Regarding `CC(=O)NCCCC[C@H]1C(=O)NCC(=O)N[C@@H](CC(C)C)C(=O)N[C@@H](CCCNC(=N)N)C(=O)NCC(=O)N[C@@H](CC(=O)O)C(=O)N[C@@H](CC(C)C)C(=O)N2CCC[C@@H]2C(=O)N1C` (cyclo(RGDL[dP][NMeK](Ac)GL)), the IC50 is 99 nM at Integrin alpha-V/beta-6; 8 nM on Integrin alpha-V/beta-8 [3]; greater than 1000 nM on Integrin alpha-5/beta-1; greater than 1000 nM in [6]; greater than 1000 nM at Integrin alpha-V/beta-5; 343 nM on Integrin alpha-V/beta-3. The Stability result in [11] is reported as “Stable”. In the data set listed under Homo sapiens, the Ratio IC50 turned out to be 12.

Regarding `CC(C)C[C@H](NC(=O)[C@H](CO)NC(=O)[C@H](CC(=O)O)NC(=O)[C@H](CC(C)C)NC(=O)[C@H](CC(=O)O)NC(=O)[C@@H](NC(=O)[C@@H](N)CCCNC(=N)N)[C@@H](C)O)C(=O)N[C@@H](CCCNC(=N)N)C(=O)N[C@H](C(=O)O)[C@@H](C)O`, in [12], the metabolised at 0.25 h, 1000 µM amounted to 56%. Further, the metabolised at 1 h, 1000 µM in [13] was 100%.
